Data taken from patent EP0107306A1, “Imidazoline derivatives” (BEECHAM GROUP PLC, priority 1982, dated 1984).
Structures can show the parent of a compound that is named as a salt. Marks after values point to notes of the source that are not given here.

Test system: E coli B44 (09:K90:K99)
Test: Protection of neonatal mice from lethal enteropathogenic E coli infection
Format: in vivo
Conditions: 4 day old mice orally infected; for % Protection by drug: mortality in drug group compared with placebo group
Procedure: 4 day old mice were orally dosed with 50pl of phosphate buffered saline containing 1 x 10^5 organisms/ml of E coli B44 (09:K90:K99) an enteropathogenic strain originally isolated from a scouring calf. The mice were then dosed b.i.d. with either placebo or drug for four days commencing 16 hours after infection. The animals were left with their mothers throughout the experiment and a daily record of deaths was made. The experiment was terminated when no mortality was seen over a 24 hour period. (Usually 7-10 days after infection). The mortality in the drug group was then compared with the mortality in the placebo group using the following formula:- [formula]
where Mp = mortality in group receiving placebo Md = mortality in group receiving drug
Statistical analysis was performed using 2 x 2 contingency tables (single tailed 'p').

[1] = drug 10mg/kg b.i.d. for four days commencing 16 hours after infection
[2] = drug 10mg/kg b.i.d. for four days

For `C[N+](C)(C)Cc1cc(Cl)c(N=C2NCCN2)c(Cl)c1` [Example 6, 2-(2,6-Dichloro-4-trimethylammoniomethylphenylimino)-imidazolidine bromide Hydrobromide.], the “% Mortality” value [1] was 71%, the “No of mice dead after 10 days” value [1] was 52 and the “% Protection by drug” value [2] was 15%.

`CC[N+](CC)(CC)Cc1cc(Cl)c(N=C2NCCN2)c(Cl)c1` [Example I, 2,(2,6-Dichloro-4-triethylammoniomethylphenylimino)-imidazolidine bromide] was tested, and the “% Mortality” value [1] was 32%, the “No of mice dead after 10 days” value [1] was 22 and the “% Protection by drug” value [2] was 40* %. For the same molecule, the “% Mortality” value (drug 50mg/kg b.i.d. for four days commencing 16 hours after infection) was 29%, the “No of mice dead after 10 days” value (drug 50mg/kg b.i.d. for four days commencing 16 hours after infection, 68 mice infected) was 20 and the “% Protection by drug” value (drug 50mg/kg b.i.d. for four days) was 46* %.
